Laboratory results published in ChEMBL document CHEMBL1156970, “Endoxifen is a new potent inhibitor of PKC: a potential therapeutic agent for bipolar disorder” (Bioorg Med Chem Lett, 2010).
Calls of active or inactive are those of the source. No cut-off for these calls is given here.

What was measured:
[1] = Inhibition of PKC at 0.2 mM after 90 mins by ELISA
[2] = Inhibition of PKC at 0.1 mM after 90 mins by ELISA
[3] = Inhibition of PKC at 0.025 to 0.05 mM after 90 mins by ELISA
[4] = Inhibition of PKC at 0.025 mM after 90 mins by ELISA
[5] = test system: Rattus norvegicus; test: Toxicity in rat at 4 mg/kg, po after 28 days; assay type: organism-based; parameters: dose 4 mg/kg, route oral; details: in vivo, 672 h
[6] = test system: Mus musculus; test: Toxicity in mouse at 8 mg/kg, po after 28 days; assay type: organism-based; parameters: dose 8 mg/kg, route oral; details: in vivo, 672 h
[7] = Inhibition of PKC after 90 mins by ELISA

Row | inhibition [1] [%] | inhibition [2] [%] | inhibition [3] | inhibition [4] [%] | inhibition [7] | Compound | Activity [5] | Activity [6]
1 | 25 | 14 | inactive |  |  | CC/C(=C(\c1ccccc1)c1ccc(OCCN(C)C)cc1)c1ccccc1 |  | 
2 | 78 |  |  | 12 | Dose-dependent effect | CC/C(=C(\c1ccc(O)cc1)c1ccc(OCCNC)cc1)c1ccccc1 [ENDOXIFEN] | Non-toxic | Non-toxic
